Patent US9085608B2, “Treatment of biofilms” (LYTIX BIOPHARMA AS, priority 2008, dated 2015)
≈ marks a conversion by molar mass, not a printed value. Entries after “also recorded” stand apart in the source; their conditions may differ.

Assays:
[1] = system: S. haemolyticus TUH 51-07 biofilm; experiment: Biofilm metabolic activity, Alamar blue reduction; format: cell-based, Staphylococcus haemolyticus; conditions: 500 mg/L, 24 h
Experimental: (§1) Biofilm formation was induced in 96-well flat bottom microtitre plates (Nunclon Surface, NUNC, Roskilde, Denmark). First, overnight cultures were diluted 1:100 in MHIIB (S. epidermidis and S. haemolyticus) or tryptic soy broth (TSB) with 5% glucose and 5% NaCl (S. aureus). Two hundred of this bacterial suspension (10^7 cfu/ml) was added to each well and incubated for 24 h at 37° C. After 24 h the wells were carefully washed twice with phosphate-buffered saline (PBS) to remove planktonic bacteria. The washing procedure was evaluated by measuring metabolic activity of the PBS with the Alamar blue method, described in detail below. […]
(§2) We quantified the metabolic activity of biofilm with a slightly modified method previously described by Pettit et al. in Antimicrob. […] After 1 h incubation at 37° C., absorbance was recorded at 570 and 600 nm using Versamax tuneable microplate reader (Molecular Devices, Sunnyvale, Calif., USA). […]
(§3) The percent reduction of AB was calculated according to the manufacturer's formula (Invitrogen, Carlsbad, USA). We calculated mean and standard deviations (SD) of all repeated measurements. Pearson's two-tailed correlation between the AB method and the CV method (FIG. 2) was calculated on averaged data from all 6 staphylococcal strains. […]

[2] = system: Staphylococcus haemolyticus TUH 51-07; experiment: microbe, parasite or virus in culture
Experimental: (§4) Bacteria were grown overnight at 37° C. in cation adjusted Mueller-Hinton II Broth (MHIIB).
(§5) We determined the MICs of oxacillin, gentamicin, tetracycline, vancomycin and linezolid using E-test (AB Biodisk, Solna, Sweden) and MICs of rifampicin using broth microdilution assay. Breakpoints were interpreted according to EUCAST criteria. […] All 3 SAMPs are tripeptides with two arginine residues providing their cationic moieties (FIG. 1). The lipophilic bulk is provided by a modified tryptophane derivate. […] The molecular weights of the SAMPs are in the range of 700-800 Dalton.

[3] = system: Staphylococcus epidermidis RP62A ATCC 35984; experiment: microbe, parasite or virus in culture
Experimental: as §4, §5

[4] = system: Staphylococcus aureus PIA90; experiment: microbe, parasite or virus in culture
Experimental: as §4, §5

[5] = system: Staphylococcus epidermidis TUH 08-16; experiment: microbe, parasite or virus in culture
Experimental: as §4, §5

[6] = system: Staphylococcus haemolyticus TUH 51-03; experiment: microbe, parasite or virus in culture
Experimental: as §4, §5

[7] = system: Staphylococcus aureus PIA 9; experiment: microbe, parasite or virus in culture
Experimental: as §4, §5

[8] = system: six staphylococcal strains (2 S. epidermidis, 2 S. haemolyticus and 2 S. aureus); experiment: Susceptibility testing under planktonic growth condition, EUCAST breakpoints; format: cell-based; conditions: all 6 strains; EUCAST criteria
Experimental: The six staphylococcal strains (2 S. epidermidis, 2 S. haemolyticus and 2 S. aureus) used in this study were selected based on their previously known biofilm forming capacity (Table 1).
as §4
We determined the MICs of oxacillin, gentamicin, tetracycline, vancomycin and linezolid using E-test (AB Biodisk, Solna, Sweden) and MICs of rifampicin using broth microdilution assay. Breakpoints were interpreted according to EUCAST criteria. We selected 3 different SAMPs (Compounds A, B and C; Lytix Biopharma, Tromsø, Norway—see FIG. 1) based on previously known antimicrobial activities, and determined their exact MICs with broth microdilution assay. All 3 SAMPs are tripeptides with two arginine residues providing their cationic moieties (FIG. 1). The lipophilic bulk is provided by a modified tryptophane derivate. The difference between the compounds is the size of the C-terminal modification; Compound A has the smallest and Compound B has the largest C-terminal modification (FIG. 1). The molecular weights of the SAMPs are in the range of 700-800 Dalton.

[9] = system: S. haemolyticus TUH 51-07 biofilm; experiment: Biofilm imaging, LIVE/DEAD staining and confocal laser scanning microscopy; format: cell-based, Staphylococcus haemolyticus; conditions: 24 h treatment
Experimental: One ml aliquots of MHIIB-diluted overnight culture was used to grow S. haemolyticus TUH 51-07 biofilm on plastic coverslides (Thermanox, cellculture treated on one side, NUNC, Roskilde, Denmark) in 24-well dishes (Falcon 3047, Becton Dickinson, NJ, USA) for 24 h. The coverslides were then washed carefully with PBS, moved to a new plate and treated for 24 h with tetracycline 50 mg/L and 500 mg/L, vancomycin 50 mg/L and 500 mg/L, or Compound A 50 mg/L and 500 mg/L. The coverslides were washed again with […] and stained with a LIVE/DEAD kit (Invitrogen Molecular Probes, Eugene, Oreg., USA) following the manufacturer's instructions. This stain contains SYTO 9 (green fluorescent) and propidium iodide (PI; red fluorescent), both binding to DNA. When used alone, the SYTO 9 generally stains all bacteria in a population; both those with intact and those with damaged membranes. In contrast, PI penetrates only bacteria with damaged membranes, causing a reduction in the SYTO 9 stain green fluorescence when both dyes are present. We examined treated and untreated biofilms with a Leica TCS SP5 (Leica Microsystems CMS Gmbh, Mannheim, Germany) confocal laser scanning microscope (CLSM). Images were obtained using a 63×1.2 NA HCX PL APO water immersion lens. For detection of SYTO9 (green channel), we used the 488 nm line of the argon laser and a detection bandwidth of 495-515 nm. For PI detection (red channel), we used the 561 nm line and a detection bandwidth of 615-660 nm. The two fluorescent-signals were collected sequentially at 400 Hz. Image analyses and export was performed in Leica LAS AF version 1.8.2.

S. aureus PIA 90 biofilm = experiment: Biofilm metabolic activity, Alamar blue reduction; format: cell-based, Staphylococcus aureus
Experimental: as §1, §2, §3

[10] = system: 24 h old biofilm of 6 different staphylococcal strains; experiment: Biofilm metabolic activity, Alamar blue reduction; format: cell-based, S. epidermidis, S. haemolyticus, S. aureus; conditions: 50 mg/L; mature biofilms from 4 out of the 6 strains tested
Experimental: The washed biofilms were subjected to treatment with antibiotics or SAMPs at different concentrations. Stock solutions of the tetracycline (Sigma Aldrich), vancomycin (Alpharma) and linezolid (Pfizer) were diluted in MHIIB to 5 mg/L, 50 mg/L and 500 mg/L, and rifampicin (Sigma Aldrich) was diluted in MHIIB to 0.01 mg/L, 0.1 mg/L and 1 mg/L. Trifluoroacetate salts of the SAMPs were dissolved in sterile water and diluted to 5 mg/L, 50 mg/L and 500 mg/L in MHIIB. 200 μl of antibiotics or SAMPs, in different concentrations, were added to each well and incubated for 24 h at 37° C. Positive controls were untreated biofilms only added 200 μl MHIIB. Negative controls were only 200 μl MHIIB, with no bacteria added.
We quantified the metabolic activity of biofilm with a slightly modified method previously described by Pettit et al. in Antimicrob. […] Briefly, the wells were washed twice with PBS. We then added 250 μl MHIIB with 5% Alamar blue (AB; Invitrogen, Carlsbad, Calif., USA) to each well. AB is a redox indicator which both fluoresces and changes colour in response to chemical reduction. The extent of reduction is a reflection of bacterial cell viability. After 1 h incubation at 37° C., absorbance was recorded at 570 and 600 nm using Versamax tuneable microplate reader (Molecular Devices, Sunnyvale, Calif., USA). […] The highest and lowest value of each run was excluded from the analyses, and the remaining 18 values were averaged.
We defined two levels of antimicrobial suppression of metabolic activity.

S. aureus PIA9 biofilm = experiment: Biofilm metabolic activity, Alamar blue reduction; format: cell-based, Staphylococcus aureus
Experimental: as §1, §2, §3

For CN(C)[C@@H]1C(=O)C(C(N)=O)=C(O)[C@@]2(O)C(=O)C3=C(O)c4c(O)cccc4[C@@](C)(O)[C@H]3C[C@@H]12 [TET, tetracycline], the “metabolic activity in biofilm assay” value [1] was “hardly any measurable metabolic activity”, the MIC ([2]; planktonic, SH TUH 51-07) was 0.5 µg/mL (≈ 1.13 µM) and the MIC ([3]; planktonic, SE RP62A ATCC 35984) was 0.5 µg/mL (≈ 1.13 µM). For the same molecule, the MIC ([4]; planktonic, SA PIA90) was 0.5 µg/mL (≈ 1.13 µM), the MIC ([5]; planktonic, SE TUH 08-16) was 2 µg/mL (≈ 4.5 µM) and the MIC ([6]; planktonic, SH TUH 51-03) was 1 µg/mL (≈ 2.25 µM). The MIC ([7]; planktonic, SA PIA 9) was 0.5 µg/mL (≈ 1.13 µM), the “susceptibility under planktonic growth” value [8] was “susceptible; also recorded: sensitive” and the “LIVE/DEAD staining of biofilm cells (CLSM)” value ([9]; 500 mg/L) was “a significant part of the cells are still green; also recorded: still contained a significant number of living cells”. For the same molecule, the “suppression of metabolic activity (AB reduction)” value (S. aureus PIA 90 biofilm) was “complete suppression”.
In the case of CN[C@H](CC(C)C)C(=O)N[C@H]1C(=O)N[C@@H](CC(N)=O)C(=O)N[C@H]2C(=O)N[C@H]3C(=O)N[C@H](C(=O)N[C@H](C(=O)O)c4cc(O)cc(O)c4-c4cc3ccc4O)[C@H](O)c3ccc(c(Cl)c3)Oc3cc2cc(c3O[C@@H]2O[C@H](CO)[C@@H](O)[C@H](O)[C@H]2O[C@H]2C[C@](C)(N)[C@H](O)[C@H](C)O2)Oc2ccc(cc2Cl)[C@H]1O [VAN, vancomycin], the “suppression of metabolic activity (AB reduction)” value [10] was “strong suppression (A strong suppression was obtained if an agent, after adjusting for the negative control, at a certain concentration caused 75% reduction of AB compared to positive control)”, the MIC ([2]; Staphylococcus haemolyticus, TUH5107) was 2 µg/mL (≈ 1.38 µM) and the MIC ([3]; Staphylococcus epidermidis, ATCC35984) was 4 µg/mL (≈ 2.76 µM). It also gave an MIC ([4]; Staphylococcus aureus, PIA90) of 2 µg/mL (≈ 1.38 µM), an MIC ([5]; Staphylococcus epidermidis, TUH0816) of 2 µg/mL (≈ 1.38 µM) and an MIC ([6]; Staphylococcus haemolyticus, TUH5103) of 4 µg/mL (≈ 2.76 µM). The MIC ([7]; Staphylococcus aureus, PIA9) was 2 µg/mL (≈ 1.38 µM), the “susceptibility under planktonic growth” value [8] was “susceptible; also recorded: sensitive” and the “LIVE/DEAD staining of biofilm cells (CLSM)” value ([9]; 50 mg/L) was “predominantly green cells; also recorded: most bacteria were not killed”. The resistance of biofilm (S. aureus PIA9 biofilm) was “completely resistant”.
